Experimental data from ChEMBL document CHEMBL5113512, “β-Nitrostyrene derivatives as broad range potential antifungal agents targeting fungal cell wall” (2022).
Converted amounts (≈) assume the structure as drawn. The source made the active and inactive calls. The calls are words filed in the database; no cut-off is given here.

How the values were obtained:
Candida albicans [1] = experiment: Antifungal activity against wild type Candida albicans SN152 assessed as inhibition of fungal growth by broth microdilution method; assay type: functional
Candida albicans [2] = experiment: Antifungal activity against Candida albicans SN152 harboring CAS5 mutant assessed as inhibition of fungal growth by broth microdilution method; assay type: functional
Candida [3] = experiment: Downregulation of CDC42 gene expression in Candida cells; assay type: functional, cell-based
Candida [4] = experiment: Downregulation of CDC15 gene expression in Candida cells; assay type: functional, cell-based
Candida [5] = experiment: Downregulation of CDC4 gene expression in Candida cells; assay type: functional, cell-based
Candida [6] = experiment: Downregulation of GUT1 gene expression in Candida cells; assay type: functional, cell-based
Candida [7] = experiment: Downregulation of STT4 gene expression in Candida cells; assay type: functional, cell-based
Candida albicans [8] = experiment: Antifungal activity against Candida albicans ATCC 24433 assessed as inhibition of fungal growth by broth microdilution method; assay type: functional
Candida parapsilosis = experiment: Antifungal activity against Candida parapsilosis ATCC 90018 assessed as inhibition of fungal growth by broth microdilution method; assay type: functional; settings: Lodderomyces parapsilosis
Nakaseomyces glabratus = experiment: Antifungal activity against Candida glabrata ATCC 2001 assessed as inhibition of fungal growth by broth microdilution method; assay type: functional
Candida tropicalis = experiment: Antifungal activity against Candida tropicalis ATCC 750 assessed as inhibition of fungal growth by broth microdilution method; assay type: functional
[Candida] auris [9] = Antifungal activity against Candida auris 102 assessed as inhibition of fungal growth by broth microdilution method; assay type: functional; settings: Candidozyma auris
[Candida] auris [10] = Antifungal activity against Candida auris 105 assessed as inhibition of fungal growth by broth microdilution method; assay type: functional; settings: Candidozyma auris
[Candida] auris [11] = Antifungal activity against Candida auris 118 assessed as inhibition of fungal growth by broth microdilution method; assay type: functional; settings: Candidozyma auris
[Candida] auris [12] = Antifungal activity against wild type Candida auris 102 assessed as inhibition of fungal growth by broth microdilution method; assay type: functional; settings: Candidozyma auris
Candida albicans [13] = experiment: Antifungal activity against Candida albicans ATCC 24433 overexpressing transporter protein GU4 assessed as inhibition of fungal growth by broth microdilution method; assay type: functional
Candida albicans [14] = experiment: Antifungal activity against Candida albicans ATCC 24433 overexpressing transporter protein GU5 assessed as inhibition of fungal growth by broth microdilution method; assay type: functional
Candida albicans [15] = experiment: Antifungal activity against Candida albicans ATCC 24433 overexpressing transporter protein F2 assessed as inhibition of fungal growth by broth microdilution method; assay type: functional
Candida albicans [16] = experiment: Antifungal activity against Candida albicans ATCC 24433 overexpressing transporter protein F5 assessed as inhibition of fungal growth by broth microdilution method; assay type: functional
Candida albicans [17] = experiment: Antifungal activity against Candida albicans ATCC 24433 overexpressing ADCDR1-GFP assessed as inhibition of fungal growth by broth microdilution method; assay type: functional
Candida albicans [18] = experiment: Antifungal activity against Candida albicans ATCC 24433 overexpressing ADCaMDR1-GFP assessed as inhibition of fungal growth by broth microdilution method; assay type: functional
Candida albicans [19] = experiment: Antifungal activity against Candida albicans ATCC 24433 overexpressing ADPDR5-GFP assessed as inhibition of fungal growth by broth microdilution method; assay type: functional
Candida albicans [20] = experiment: Antifungal activity against Candida albicans ATCC 24433 overexpressing AD(1-8)u-assessed as inhibition of fungal growth by broth microdilution method; assay type: functional
Candida albicans [21] = experiment: Synergistic antifungal activity against Candida albicans ATCC 24433 overexpressing ADCDR1-GFP assessed as fractional inhibitory concentration index incubated for 48 hrs in presence of caspofungin by checker board assay; assay type: functional
Candida albicans [22] = experiment: Synergistic antifungal activity against Candida albicans ATCC 24433 overexpressing ADCaMDR1-GFP assessed as fractional inhibitory concentration index incubated for 48 hrs in presence of caspofungin by checker board assay; assay type: functional
Candida albicans [23] = experiment: Synergistic antifungal activity against Candida albicans ATCC 24433 overexpressing ADPDR5-G assessed as fractional inhibitory concentration index incubated for 48 hrs in presence of caspofungin by checker board assay; assay type: functional

## C[C@@H]1[C@H](O)[C@@H](C)/C=C/C=C/C=C/C=C/C=C/C=C/C=C/[C@H](O[C@@H]2O[C@H](C)[C@@H](O)[C@H](N)[C@@H]2O)C[C@@H]2O[C@](O)(C[C@@H](O)C[C@@H](O)[C@H](O)CC[C@@H](O)C[C@@H](O)CC(=O)O[C@H]1C)C[C@H](O)[C@H]2C(=O)O [AMPHOTERICIN B]
Candida albicans [1]
  MIC80: 0.5 µg/mL (≈ 0.541 µM)
Candida albicans [2]
  MIC80: 0.5 µg/mL (≈ 0.541 µM)

## CC[C@H](C)C[C@H](C)CCCCCCCCC(=O)N[C@H]1C[C@@H](O)[C@@H](NCCN)NC(=O)[C@@H]2[C@@H](O)CCN2C(=O)[C@H]([C@H](O)CCN)NC(=O)[C@H]([C@H](O)[C@@H](O)c2ccc(O)cc2)NC(=O)[C@@H]2C[C@@H](O)CN2C(=O)[C@H]([C@@H](C)O)NC1=O [CASPOFUNGIN]
Candida [3]
  Activity: Active
Candida [4]
  Activity: Active
Candida [5]
  Activity: Active
Candida albicans [1]
  MIC80: 0.125 µg/mL (≈ 0.114 µM)
Candida albicans [2]
  MIC80: 0.0156 µg/mL (≈ 0.0143 µM)
Candida [6]
  Activity: Active
Candida [7]
  Activity: Active

## CC/C(=C\c1ccc(OC)c(OC)c1)[N+](=O)[O-]
Candida albicans [8]
  MIC80: 16 µg/mL (≈ 67.4 µM)
Candida parapsilosis
  MIC80: 32 µg/mL (≈ 135 µM)
Nakaseomyces glabratus
  MIC80: 32 µg/mL (≈ 135 µM)
Candida tropicalis
  MIC80: 16 µg/mL (≈ 67.4 µM)
[Candida] auris [9]
  MIC80: 8 µg/mL (≈ 33.7 µM)
[Candida] auris [10]
  MIC80: 8 µg/mL (≈ 33.7 µM)
[Candida] auris [11]
  MIC80: 8 µg/mL (≈ 33.7 µM)
[Candida] auris [12]
  MIC80: 8 µg/mL (≈ 33.7 µM)
Candida albicans [13]
  MIC80: 16 µg/mL (≈ 67.4 µM)
Candida albicans [14]
  MIC80: 8 µg/mL (≈ 33.7 µM)
Candida albicans [15]
  MIC80: 8 µg/mL (≈ 33.7 µM)
Candida albicans [16]
  MIC80: 8 µg/mL (≈ 33.7 µM)
Candida albicans [17]
  MIC80: 32 µg/mL (≈ 135 µM)
Candida albicans [18]
  MIC80: 8 µg/mL (≈ 33.7 µM)
Candida albicans [19]
  MIC80: 8 µg/mL (≈ 33.7 µM)
Candida albicans [20]
  MIC80: 16 µg/mL (≈ 67.4 µM)
Candida albicans [21]
  fractional inhibitory concentration index (FICI): <0.5
Candida albicans [22]
  fractional inhibitory concentration index (FICI): <0.5
Candida albicans [23]
  fractional inhibitory concentration index (FICI): <0.5

## OC(Cn1cncn1)(Cn1cncn1)c1ccc(F)cc1F [FLUCONAZOLE]
Candida albicans [1]
  MIC80: 1 µg/mL (≈ 3.27 µM)
Candida albicans [2]
  MIC80: 1 µg/mL (≈ 3.27 µM)

## C/C(=C\c1ccc(N(C)C)cc1)[N+](=O)[O-]
Candida albicans [8]
  MIC80: 16 µg/mL (≈ 77.6 µM)
Candida parapsilosis
  MIC80: 32 µg/mL (≈ 155 µM)
Nakaseomyces glabratus
  MIC80: 32 µg/mL (≈ 155 µM)
Candida tropicalis
  MIC80: 16 µg/mL (≈ 77.6 µM)
[Candida] auris [9]
  MIC80: 8 µg/mL (≈ 38.8 µM)
[Candida] auris [10]
  MIC80: 8 µg/mL (≈ 38.8 µM)
[Candida] auris [11]
  MIC80: 8 µg/mL (≈ 38.8 µM)
[Candida] auris [12]
  MIC80: 8 µg/mL (≈ 38.8 µM)
Candida albicans [13]
  MIC80: 16 µg/mL (≈ 77.6 µM)
Candida albicans [14]
  MIC80: 16 µg/mL (≈ 77.6 µM)
Candida albicans [15]
  MIC80: 16 µg/mL (≈ 77.6 µM)
Candida albicans [16]
  MIC80: 16 µg/mL (≈ 77.6 µM)
Candida albicans [17]
  MIC80: 32 µg/mL (≈ 155 µM)
Candida albicans [18]
  MIC80: 8 µg/mL (≈ 38.8 µM)
Candida albicans [19]
  MIC80: 16 µg/mL (≈ 77.6 µM)
Candida albicans [20]
  MIC80: 16 µg/mL (≈ 77.6 µM)
